Drawing on ChEMBL document CHEMBL4145533, “6,7-Dimorpholinoalkoxy quinazoline derivatives as potent EGFR inhibitors with enhanced antiproliferative activities against tumor cells” (Eur J Med Chem, 2018), this text covers IC50, viability and Activity for 8 compounds.

The subject of one assay is NCI-H1975. Put plainly: Antiproliferative activity against human NCI-H1975 cells harboring EGFR L858R/T790M double mutant after 72 hrs by MTT assay. In kind it is functional, cell-based. The note with it: NCI-H1975, 72 h.
A further assay relates to HCC827. Briefly: Antiproliferative activity against human HCC827 cells harboring EGFR E746-A750 del mutant after 72 hrs by MTT assay. In kind it is functional, cell-based. The note with it: HCC827, 72 h.
For assay [1], the system named is A549. Briefly: Antiproliferative activity against human A549 cells harboring wild type EGFR/K-ras mutant after 72 hrs by MTT assay. In kind it is functional, cell-based. As to conditions: A549, 72 h.
A further assay has as its system SW480. Briefly: Antiproliferative activity against human SW480 cells harboring wild type EGFR after 72 hrs by MTT assay. As to conditions: SW480, 72 h. The format is functional, cell-based. In general terms: Tetrazolium dyes change colour on reduction, which living cells bring about.
In a further assay the test system is A-431. Briefly: Antiproliferative activity against human A431 cells harboring wild type EGFR after 72 hrs by MTT assay. In kind it is functional, cell-based. The note with it: A-431, 72 h.
Assay [2] concerns A549. Briefly: Induction of apoptosis in human A549 cells assessed as viable cells at 15 uM after 48 hrs by Annexin V-FITC/propidium iodide satining based FACS analysis (reference value: 95.87%). In kind it is functional. As to conditions: A549, 48 h, read-out: Activity. In general terms: In flow cytometry, cells or beads pass a laser one at a time.
The subject of assay [3] is A549. Briefly: Induction of apoptosis in human A549 cells assessed as early apoptotic cells at 15 uM after 48 hrs by Annexin V-FITC/propidium iodide satining based FACS analysis (reference value: 2.78%). In kind it is functional.
In assay [4] the test system is A549. Briefly: Cell cycle arrest in human A549 cells assessed as accumulation at G0/G1 phase at 15 uM after 48 hrs by propidium iodide satining based FACS analysis (reference value: 48.87%). In kind it is functional.
Assay [5] relates to A549. Briefly: Induction of apoptosis in human A549 cells assessed as necrotic cells at 15 uM after 48 hrs by Annexin V-FITC/propidium iodide satining based FACS analysis (reference value: 0.14%). In kind it is functional.
Assay [6] has as its system A549. Put plainly: Induction of apoptosis in human A549 cells assessed as late apoptotic cells at 15 uM after 48 hrs by Annexin V-FITC/propidium iodide satining based FACS analysis (reference value: 1.21%). The format is functional.
Assay [7] concerns A549. Briefly: Cell cycle arrest in human A549 cells assessed as accumulation at S phase at 15 uM after 48 hrs by propidium iodide satining based FACS analysis (reference value: 34.45%). The format is functional.
Assay [8] has as its target Epidermal growth factor receptor (Homo sapiens, UniProt P00533, L858R/T790M). Put plainly: Inhibition of EGFR L858R/T790M double mutant (unknown origin) using ULight-poly GT as substrate preincubated for 30 mins followed by substrate addition measured after 1 hr by spectrophotometric method.
Assay [9] deals with Epidermal growth factor receptor (Homo sapiens, UniProt P00533, T790M). Put plainly: Inhibition of EGFR T790M mutant (unknown origin) preincubated for 10 mins followed by TK substrate-botion addition measured after 1 hr by spectrophotometric method.
Chain of Epidermal growth factor receptor (Homo sapiens, UniProt P00533, T790M) (P00533 25-1210 T790M limits assumed): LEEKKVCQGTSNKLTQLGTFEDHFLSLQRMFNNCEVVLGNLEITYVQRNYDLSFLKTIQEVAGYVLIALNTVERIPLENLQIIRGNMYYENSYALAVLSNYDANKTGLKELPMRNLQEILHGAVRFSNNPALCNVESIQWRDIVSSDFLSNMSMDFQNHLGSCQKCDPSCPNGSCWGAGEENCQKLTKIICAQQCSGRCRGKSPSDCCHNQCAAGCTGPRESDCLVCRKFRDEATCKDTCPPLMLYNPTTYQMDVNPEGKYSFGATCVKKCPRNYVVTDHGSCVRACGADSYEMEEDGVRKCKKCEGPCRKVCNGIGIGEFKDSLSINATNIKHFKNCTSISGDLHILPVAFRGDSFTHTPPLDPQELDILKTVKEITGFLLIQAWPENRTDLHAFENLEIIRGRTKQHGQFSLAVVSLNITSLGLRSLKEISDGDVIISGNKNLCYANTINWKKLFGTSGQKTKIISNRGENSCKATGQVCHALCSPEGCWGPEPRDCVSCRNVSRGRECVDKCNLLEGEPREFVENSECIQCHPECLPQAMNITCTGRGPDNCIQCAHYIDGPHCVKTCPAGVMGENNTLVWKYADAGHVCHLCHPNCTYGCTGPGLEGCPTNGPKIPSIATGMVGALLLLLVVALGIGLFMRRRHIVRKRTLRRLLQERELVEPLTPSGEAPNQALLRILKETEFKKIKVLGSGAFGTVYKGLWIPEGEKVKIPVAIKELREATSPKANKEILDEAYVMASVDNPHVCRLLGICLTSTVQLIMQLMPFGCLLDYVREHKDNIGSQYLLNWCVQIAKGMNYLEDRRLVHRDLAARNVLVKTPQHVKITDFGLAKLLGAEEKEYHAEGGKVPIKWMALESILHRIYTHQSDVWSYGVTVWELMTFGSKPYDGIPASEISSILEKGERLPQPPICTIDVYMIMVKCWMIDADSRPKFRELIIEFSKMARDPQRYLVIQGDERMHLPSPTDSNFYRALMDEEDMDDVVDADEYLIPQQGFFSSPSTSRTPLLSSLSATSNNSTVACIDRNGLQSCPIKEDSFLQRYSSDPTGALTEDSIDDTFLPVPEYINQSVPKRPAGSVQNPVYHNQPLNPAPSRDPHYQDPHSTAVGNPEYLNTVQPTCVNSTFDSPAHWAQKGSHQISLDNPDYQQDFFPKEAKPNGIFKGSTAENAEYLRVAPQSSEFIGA
The target in assay [10] is Epidermal growth factor receptor (Homo sapiens, UniProt P00533, L858R). Briefly: Inhibition of EGFR L858R mutant (unknown origin) using ULight-poly GT as substrate preincubated for 120 mins followed by substrate addition measured after 2 hrs by spectrophotometric method.
Chain of Epidermal growth factor receptor (Homo sapiens, UniProt P00533, L858R) (P00533 25-1210 L858R limits assumed): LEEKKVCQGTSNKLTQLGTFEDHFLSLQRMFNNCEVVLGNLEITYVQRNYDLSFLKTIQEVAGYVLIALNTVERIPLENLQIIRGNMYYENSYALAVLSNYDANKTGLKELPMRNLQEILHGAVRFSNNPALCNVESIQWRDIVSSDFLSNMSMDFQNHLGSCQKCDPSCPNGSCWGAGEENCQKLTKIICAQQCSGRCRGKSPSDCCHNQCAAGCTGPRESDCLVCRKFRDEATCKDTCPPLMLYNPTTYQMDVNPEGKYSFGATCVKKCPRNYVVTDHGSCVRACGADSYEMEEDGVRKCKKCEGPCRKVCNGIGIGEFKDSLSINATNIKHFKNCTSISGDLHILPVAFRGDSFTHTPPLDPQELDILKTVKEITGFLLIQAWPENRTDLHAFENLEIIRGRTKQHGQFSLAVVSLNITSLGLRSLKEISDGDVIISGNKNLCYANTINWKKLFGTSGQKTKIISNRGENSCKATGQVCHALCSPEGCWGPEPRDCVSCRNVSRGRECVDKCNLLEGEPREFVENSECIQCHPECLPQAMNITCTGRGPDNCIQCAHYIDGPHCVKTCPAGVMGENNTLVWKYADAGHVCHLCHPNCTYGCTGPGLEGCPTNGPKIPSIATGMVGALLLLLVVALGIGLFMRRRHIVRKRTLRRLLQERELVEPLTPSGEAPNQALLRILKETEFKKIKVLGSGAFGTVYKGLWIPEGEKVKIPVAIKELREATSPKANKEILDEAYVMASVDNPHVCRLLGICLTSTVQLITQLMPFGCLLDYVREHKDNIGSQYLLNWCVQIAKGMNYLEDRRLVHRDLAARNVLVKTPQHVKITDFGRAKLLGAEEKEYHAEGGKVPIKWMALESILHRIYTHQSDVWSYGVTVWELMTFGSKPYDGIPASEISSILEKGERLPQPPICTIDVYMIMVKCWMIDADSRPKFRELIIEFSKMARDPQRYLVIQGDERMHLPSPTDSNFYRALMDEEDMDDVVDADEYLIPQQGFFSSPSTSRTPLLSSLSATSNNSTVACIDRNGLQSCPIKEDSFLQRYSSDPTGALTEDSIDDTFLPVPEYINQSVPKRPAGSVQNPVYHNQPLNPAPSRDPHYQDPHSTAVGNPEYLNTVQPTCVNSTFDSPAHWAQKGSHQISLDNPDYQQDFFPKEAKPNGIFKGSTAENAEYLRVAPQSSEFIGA

As usually defined, the IC50 is the point on the concentration scale where inhibition reaches its midpoint.

Each structure is given as a SMILES string.

Chain of Epidermal growth factor receptor (Homo sapiens, UniProt P00533, L858R/T790M) (P00533 25-1210 T790M/L858R limits assumed): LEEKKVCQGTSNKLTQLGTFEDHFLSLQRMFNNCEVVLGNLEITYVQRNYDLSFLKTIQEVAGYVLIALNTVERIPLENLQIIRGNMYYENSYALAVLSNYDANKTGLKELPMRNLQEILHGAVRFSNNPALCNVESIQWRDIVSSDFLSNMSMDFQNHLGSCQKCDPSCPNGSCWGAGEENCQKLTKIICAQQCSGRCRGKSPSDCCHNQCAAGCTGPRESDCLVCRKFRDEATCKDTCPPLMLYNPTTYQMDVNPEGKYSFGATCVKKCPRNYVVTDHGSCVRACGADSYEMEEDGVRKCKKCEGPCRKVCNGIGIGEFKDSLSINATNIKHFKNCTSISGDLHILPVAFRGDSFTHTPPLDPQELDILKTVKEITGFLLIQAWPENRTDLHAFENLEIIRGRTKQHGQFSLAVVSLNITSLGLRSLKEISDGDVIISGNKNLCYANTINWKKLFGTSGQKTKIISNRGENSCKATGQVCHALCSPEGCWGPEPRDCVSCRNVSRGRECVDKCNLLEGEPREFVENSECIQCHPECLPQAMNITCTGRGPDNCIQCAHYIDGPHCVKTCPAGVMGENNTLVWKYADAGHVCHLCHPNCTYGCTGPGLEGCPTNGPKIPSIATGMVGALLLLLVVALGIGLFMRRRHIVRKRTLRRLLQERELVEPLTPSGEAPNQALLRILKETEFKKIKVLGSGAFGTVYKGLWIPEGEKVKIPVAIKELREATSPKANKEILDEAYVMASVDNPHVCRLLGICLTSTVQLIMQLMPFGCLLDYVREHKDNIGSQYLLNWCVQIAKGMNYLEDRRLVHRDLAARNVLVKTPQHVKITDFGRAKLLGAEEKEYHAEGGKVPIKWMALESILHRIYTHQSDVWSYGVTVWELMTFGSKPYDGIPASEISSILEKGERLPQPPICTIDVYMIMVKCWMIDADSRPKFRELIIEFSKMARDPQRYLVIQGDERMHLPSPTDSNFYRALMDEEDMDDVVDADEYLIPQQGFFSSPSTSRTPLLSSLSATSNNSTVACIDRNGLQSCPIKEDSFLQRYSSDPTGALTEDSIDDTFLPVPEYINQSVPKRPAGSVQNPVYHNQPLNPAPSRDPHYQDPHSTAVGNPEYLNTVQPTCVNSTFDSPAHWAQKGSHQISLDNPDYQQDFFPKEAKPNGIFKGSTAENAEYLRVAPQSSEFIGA

In the case of `C/C=C/c1ccc(Nc2ncnc3cc(OCCN4CCOCC4)c(OCCN4CCOCC4)cc23)cc1`, the IC50 with NCI-H1975 worked out at 89.3 µM; with HCC827, 1.86 µM; with A549 [1] it was 14.1 µM; in the assay with SW480, 29.2 µM; with A-431 it was 10.1 µM.

On to `Fc1ccc(Nc2ncnc3cc(OCCN4CCOCC4)c(OCCN4CCOCC4)cc23)cc1Cl`, for which the half-maximal inhibitory concentration (IC50) came out at 20.4 µM in the assay on NCI-H1975; 0.05 µM with HCC827; 7.91 µM in the assay on A549 [1]; 16.6 µM in the assay on SW480; 10.4 µM with A-431.

For the compound `CS(=O)(=O)CCNCc1ccc(-c2ccc3ncnc(Nc4ccc(OCc5cccc(F)c5)c(Cl)c4)c3c2)o1` [LAPATINIB], the IC50 amounted to 12.7 µM in the assay with NCI-H1975; 0.6 µM with HCC827; 14.9 µM in the assay with A549 [1]; 12.6 µM in the assay with SW480; 4.8 µM with A-431. Besides, in the assay on A549 [2], the viability at 15 µM was determined as 87.7%. In addition, the Activity in the assay on A549 [3] came out at 4.56%; in the assay on A549 [4], 67.5%; in the assay with A549 [5], 1.5%; with A549 [6], 6.27%; in the assay with A549 [7], 23.89%.

Regarding `Fc1cccc(COc2ccc(Nc3ncnc4cc(OCCN5CCOCC5)c(OCCN5CCOCC5)cc34)cc2Cl)c1`, the half-inhibitory concentration (IC50) was found to be 12.2 µM with NCI-H1975; 0.32 µM in the assay with HCC827; 5.81 µM with A549 [1]; 8.82 µM in the assay with SW480; 3.62 µM with A-431.

In the case of `C/C=C/c1ccc(Nc2ncnc3cc(OCCCN4CCOCC4)c(OCCCN4CCOCC4)cc23)cc1`, the IC50 with NCI-H1975 is 5.53 µM; in assay [8] it was > 2 µM; in assay [9] it was > 1 µM; in assay [10] it was 0.235 µM; in the assay on HCC827, 0.29 µM; with A549 [1], 8.83 µM. In addition, the IC50 is 6.08 µM with SW480 and 1.35 µM in the assay on A-431.

Take `Fc1ccc(Nc2ncnc3cc(OCCCN4CCOCC4)c(OCCCN4CCOCC4)cc23)cc1Cl`: the IC50 came to 4.45 µM in the assay with NCI-H1975; 0.0078 µM with HCC827; 3.03 µM with A549 [1]; 3.54 µM in the assay on SW480; 2.01 µM in the assay with A-431.

Regarding `C#Cc1cccc(Nc2ncnc3cc(OCCCN4CCOCC4)c(OCCCN4CCOCC4)cc23)c1`, the IC50 in the assay on NCI-H1975 turned out to be 3.1 µM; in the assay with HCC827 it was 0.0066 µM; in the assay on A549 [1] it was 3.97 µM; with SW480 it was 5.39 µM; in the assay on A-431 it was 1.56 µM.

Regarding `C#Cc1cccc(Nc2ncnc3cc(OCCN4CCOCC4)c(OCCN4CCOCC4)cc23)c1`, the IC50 in the assay on NCI-H1975 is 23.1 µM; in the assay on HCC827 it was 0.05 µM; in the assay on A549 [1], 11.5 µM; in the assay with SW480, 20.8 µM; with A-431, 5.41 µM.
